Data on 2 compounds can be found in paper PMC10059066, “Probing Serum Albumins and Cyclodextrins as Binders of the Mycotoxin Metabolites Alternariol-3-Glucoside, Alternariol-9-Monomethylether-3-Glucoside, and Zearalenone-14-Glucuronide” (Metabolites, 2023).

Assay [1] is described as follows: Extraction of mycotoxins from aqueous solutions with β-cyclodextrin bead polymer. To be noted: BBP 10 mg/mL, mycotoxin 5 μM, sodium acetate buffer pH 5.0, 40 min, 25 °C. On the procedure: The extraction of mycotoxins by insoluble (but water-swellable) CD bead polymers was tested in 0.05 M sodium acetate (pH 5.0) and 0.05 M sodium borate (pH 10.0) buffers. AG, AMG, alternariol, Z14Glr, and zearalenone solutions (5 μM each) were incubated with increasing amounts (0–10 mg/mL) of BBP or GBP in a thermomixer for 40 min at 1000 rpm and 25 °C. After pulse centrifugation (5000× g, 3 s), the mycotoxin contents of the supernatants were analyzed by HPLC-FLD (see Section 2.5).
The quantitative analyses of the examined mycotoxins were performed with a Jasco HPLC system (Tokyo, Japan) equipped with a binary pump (PU-4180), an autosampler (AS 4050), and a fluorescence detector (FP-920). Chromatograms were evaluated using the ChromNAV2 software (Jasco). Alternariol and zearalenone were analyzed as described previously. During the validation of our new HPLC-FLD methods, the linearity (LIN), limit of detection (LOD), limit of quantification (LOQ), and intraday repeatability (IDR) were determined as described previously.
AG and AMG were quantified using the following method: Isocratic elution of the samples (20 μL) was performed at room temperature with a 1 mL/min flow rate, employing phosphoric acid (1 mM) and acetonitrile (65:35 v/v%) as the mobile phase, where a Security Guard (C18, 4.0 × 3.0 mm; Phenomenex, Torrance, CA, US) precolumn was linked to a Kinetex EVO C18 (250 × 4.6 mm, 5 μm; Phenomenex) analytical column. Chromatograms were recorded, applying 335 nm and 455 nm excitation and emission wavelengths, respectively. The method validation parameters were as follows: AG (LIN: 0.2–5.0 μM, R^2 = 0.999; LOD = 0.05 μM; LOQ = 0.18 μM; IDR = 1.3%, n = 7); AMG (LIN: 0.2–5.0 μM, R^2 = 0.997; LOD = 0.15 μM; LOQ = 0.50 μM; IDR = 2.3%, n = 7).
Z14Glr was quantified using the following method: Isocratic elution of the samples (20 μL) was performed at room temperature with a 1 mL/min flow rate, employing 1% acetic acid solution and acetonitrile (65:35 v/v%) as the mobile phase, where a Security Guard (C8, 4.0 × 3.0 mm; Phenomenex) precolumn was linked to a Mediterranea See8 (C8, 150 × 4.6 mm, 5 μm; Teknokroma, Barcelona, Spain) analytical column. Chromatograms were recorded, applying 315 nm and 465 nm excitation and emission wavelengths, respectively. The method validation parameters for the HPLC analysis of Z14Glr were also determined (LIN: 0.2–5.0 μM, R^2 = 0.999; LOD = 0.15 μM; LOQ = 0.50 μM; IDR = 2.0%, n = 7).

The test system of assay [2] is albumins. Also noted: method as in PMID 31083629. To be noted: alternariol, RSA vs HSA; cited from earlier work.

For the compound `C[C@H]1CCCC(=O)CCC/C=C/c2cc(O)cc(O)c2C(=O)O1` [zearalenone], the “decrease in mycotoxin concentration (extraction) by BBP” value in assay [1] was “more than 95%”.

As to `Cc1cc(O)cc2oc(=O)c3c(O)cc(O)cc3c12` [alternariol], the “affinity of RSA compared to HSA” value in assay [2] is “almost eightfold higher affinity”.
